The values that follow come from patent publication US20230151075A1, “PARATHYROID HORMONE ATTENUATES LOW BACK PAIN AND OSTEOARTHRITIC PAIN” (The Johns Hopkins University, priority 2019, published 2023).

The subject of one experiment is PKA/CREB signaling. Nature of the experiment: Western blot and fluorescent staining of PKA and CREB phosphorylation in primary DRG neurons. Format: cell-based, mice. The method, then:
DRG neuron culture was processed as described previously. Saijilafu and Zhou, 2012. Briefly, the dishes or coverslips for DRG neuron culture were coated with 50 μL working solution containing 100 μg/mL Poly-D-Lysine and 10 µg/mL Laminin at 37° C. To prepare the neuron culture medium, alpha minimum essential medium (α-MEM) was supplemented with 1× penicillin-streptomycin solution (500 units of penicillin and 500 μg of streptomycin, Gibco Laboratories, Gaithersburg, Md.), 5% fetal bovine serum (Gibco), 1× GlutaMAX-1 supplement (35050-061, Thermo Fisher Scientific), and the antimitotic reagents containing 20 μM 5-fluoro-2-deoxyuridine (F0503, Sigma-Aldrich) and 20 μM uridine (U3003, Sigma-Aldrich). For the serum-free medium, the fetal bovine serum was replaced with the supplement B27. After euthanizing the 6- to 8-week-old mice, the lumbar DRGs were harvested and stored in microfuge tubes with α-MEM medium placed on ice. […]
The primary DRG neurons were treated with 20 μM PGE2(14010, Cayman Chemical, Ann Arbor, Mich.) for 30 min; 10 μM PKA inhibitor (H-89, BML-E1196, Enzo Life Sciences, Farmingdale, N.Y.) for 1 h. […] Specific antibodies were applied for incubation, and the proteins were detected by using an enhanced chemiluminescence kit (Amersham Bioscience, RNP2108). […]
For orientation: In western blotting, separated proteins are transferred to a membrane and probed.

The test system of the next experiment is primary DRG neurons. Kind of experiment: Sodium indication (ANG-2 AM) in primary DRG neurons. Format: cell-based, mice. Here is the method: DRG neuron culture was processed as described previously. Saijilafu and Zhou, 2012. Briefly, the dishes or coverslips for DRG neuron culture were coated with 50 μL working solution containing 100 μg/mL Poly-D-Lysine and 10 µg/mL Laminin at 37° C. To prepare the neuron culture medium, alpha minimum essential medium (α-MEM) was supplemented with 1× penicillin-streptomycin solution (500 units of penicillin and 500 μg of streptomycin, Gibco Laboratories, Gaithersburg, Md.), 5% fetal bovine serum (Gibco), 1× GlutaMAX-1 supplement (35050-061, Thermo Fisher Scientific), and the antimitotic reagents containing 20 μM 5-fluoro-2-deoxyuridine (F0503, Sigma-Aldrich) and 20 μM uridine (U3003, Sigma-Aldrich). For the serum-free medium, the fetal bovine serum was replaced with the supplement B27. After euthanizing the 6- to 8-week-old mice, the lumbar DRGs were harvested and stored in microfuge tubes with α-MEM medium placed on ice. DRG neurons were digested and dissociated with 1 mg/mL collagenase A solution (10103578001, Roche, Basel, Switzerland) in a 37° C. incubator for 90 min followed by 1× TrypLE Express solution (15140-122, Thermo Fisher) at 37° C. for 20 min. Then, TrypLE Express solution was removed, and DRGs were washed gently 3 times with 1 mL prepared culture medium (containing 5% fetal bovine serum). Tissue was triturated by gently pipetting up and down 20-30 times in 1 mL prepared culture medium. After trituration, the DRG neuron suspension was filtered (40-μm strainer) following non-dissociated tissue settlement to the bottom of the microfuge and transferred to another tube. After centrifugation (800 r.p.m for 4 min at room temperature), the cell pellet was resuspended and cultured in a precoated dish.
For sodium indication. ANG-2 AM (Teflabs, Austin, Tex.) was used according to the manufacturer's protocol. Briefly, 1 mM stock solution of ANG-2 AM was diluted to twice the original volume with a solution of 20% Pluronic F-127 (Thermo Fisher Scientific) in DMSO. Then, the ANG-2 AM/Pluronic F-127 solution was dispersed to final concentration at 5 μM ANG-2 AM and 0.1% Pluronic F-127 with serum-free culture medium. After incubation for 1 h at 37° C., the cell loading medium was removed. The cells were washed with serum-free and dye-free medium and prepared for sodium imaging. The sterile imaging buffer contained 5.4 mM KCL, 160 mM NaCL, 20 mM HEPES, 1.3 mM CaCL2, 0.8 mM MgSO4, 0.78 mM NaH2PO4, and 5 mM glucose (pH 7.4) The sodium imaging was monitored and captured using a confocal microscope (Zeiss LSM 780).
In different sets of experiments, the DRG neurons were treated with 20 μM PGE2 (14010, Cayman Chemical, Ann Arbor, Mich.) for 5 min. […]

In another experiment the test system is OA joint. The note with it: intra-articular injection; cited from earlier work.
In experiment [1] the test system is patients with Modic changes associated LBP. The note with it: cited from earlier work.

Take `CCCCC[C@H](O)/C=C/[C@H]1[C@H](O)CC(=O)[C@@H]1C/C=C\CCCC(=O)O` [PGE2, Prostaglandin E2]: the “activation of PKA and CREB” value in the experiment with PKA/CREB signaling (PGE2 20 μM 30 min) is recorded as “activates”. The PGE2-stimulated sodium influx result with primary DRG neurons (DRG neurons of EP4−/− mice) is on record as “abolished”. In the experiment on primary DRG neurons (PGE2 20 μM 5 min, DRG neurons from EP4f/f mice), the “sodium influx (fluorescent intensity of sodium indicator)” value was “significantly stimulated the enhancement of the fluorescent intensity”. Turning to hyaluronic acid, the “duration of pain relief” value in the experiment on OA joint is “up to 6 months”. As for denosumab, in experiment [1], the analgesic effects entry is listed as “analgesic effects”. For `CCCC(=O)Nc1ncnc2c1ncn2[C@@H]1O[C@@H]2COP(=O)(O)O[C@H]2[C@H]1OC(=O)CCC` [cAMP, dibutyryl-cAMP], the sodium influx result with primary DRG neurons (DRG neurons of EP4−/− mice, PGE2 combined with cAMP) is given as “rescued sodium influx”.

As for `O=S(=O)(NCCNC/C=C/c1ccc(Br)cc1)c1cccc2cnccc12` [PKA inhibitor, H-89], the “PGE2-induced activation of PKA and CREB” value in the experiment on PKA/CREB signaling (H-89 10 μM 60 min) is on record as “abrogated”. Further, in the experiment on primary DRG neurons (PGE2 20 μM combined with H-89 10 μM or siRNA for Nav 1.8), the PGE2-induced sodium influx result is “ablated”.
